Molecular target: T1, CFTR (F508del/MF-HBE cells) (Homo sapiens, UniProt P13569, DEL508-508)
T1 construct: human bronchial epithelial (HBE) cells derived from CF subjects heterozygous for F508del and a minimal function CFTR mutation (F508del/MF-HBE); endogenous in cells; host or cells: Primary human bronchial epithelial cells from CF subjects (F508del/MF genotype), differentiated at an air-liquid interface
Assay: Ussing chamber assay of CFTR-mediated short-circuit currents, Assay D (single concentration of 1 μM)
Format: cell-based
Conditions: with 44 nM potentiator and 18 μM Tezacaftor, 18-24 hours, 20% human serum
Experimental: Ussing chamber experiments were performed using human bronchial epithelial (HBE) cells derived from CF subjects heterozygous for F508del and a minimal function CFTR mutation (F508del/MF-HBE) and cultured as previously described (Neuberger T, Burton B, Clark H, Van Goor F Methods Mol Biol 2011:741:39-54). After four days the apical media was removed, and the cells were grown at an air liquid interface for >14 days prior to use.
To isolate the CFTR-mediated short-circuit (ISC) current, F508del/MF-HBE grown on Costar® Snapwell™ cell culture inserts were mounted in an Ussing chamber and the transepithelial ISC was measured under voltage-clamp recording conditions (Vhold=0 mV) at 37° C. The basolateral solution contained (in mM) 145 NaCl, 0.83 K2HPO4, 3.3 KH2PO4, 1.2 MgCl2, 1.2 CaCl2, 10 Glucose, 10 HEPES (pH adjusted to 7.4 with NaOH) and the apical solution contained (in mM) 145 NaGluconate, 1.2 MgCl2, 1.2 CaCl2, 10 glucose, 10 HEPES (pH adjusted to 7.4 with NaOH) and 30 μM amiloride to block the epithelial sodium channel. Forskolin (20 μM) was added to the apical surface to activate CFTR, followed by apical addition of a CFTR inhibitor cocktail consisting of BPO, GlyH-101, and CFTR inhibitor 172 (each at 20 μM final assay concentration) to specifically isolate CFTR currents. The CFTR-mediated ISC (μA/cm^2) for each condition was determined from the peak forskolin response to the steady-state current following inhibition.
The activity of the CFTR corrector compounds on the CFTR-mediated ISC was determined in Ussing chamber studies as described above. The F508del/MF-HBE cell cultures were either incubated with the corrector compounds at a range of concentrations in combination with 33 nM (6R,12R)-17-amino-12-methyl-6,15-bis(trifluoromethyl)-13,19-dioxa-3,4,18-triazatricyclo[12.3.1.12,5]nonadeca-1(18),2,4,14,16-pentaen-6-ol and 18 μM Tezacaftor or were incubated with the corrector compounds at a single fixed concentration of 1 μM in combination with 44 nM (6R,12R)-17-amino-12-methyl-6,15-bis(trifluoromethyl)-13,19-dioxa-3,4,18-triazatricyclo[12.3.1.12,5]nonadeca-1(18),2,4,14,16-pentaen-6-ol and 18 μM Tezacaftor for 18-24 hours at 37° C. and in the presence of 20% human serum. The concentration of corrector compounds with 44 nM or 33 nM (6R,12R)-17-amino-12-methyl-6,15-bis(trifluoromethyl)-13,19-dioxa-3,4,18-triazatricyclo[12.3.1.12,5]nonadeca-1(18),2,4,14,16-pentaen-6-ol and 18 μM Tezacaftor during the 18-24 hours incubations was kept constant throughout the Ussing chamber measurement of the CFTR-mediated ISC to ensure compounds were present throughout the entire experiment. The efficacy and potency of the putative F508del correctors was compared to that of the known Vertex corrector, (14S)-8-[3-(2-{Dispiro[2.0.2.1]heptan-7-yl}ethoxy)-1H-pyrazol-1-yl]-12,12-dimethyl-2λ^6-thia-3,9,11,18,23-pentaazatetracyclo[17.3.1.111,14.05,10]tetracosa-1(22),5,7,9,19(23),20-hexaene-2,2,4-trione, in combination with 18 μM Tezacaftor and 1 μM Ivacaftor.
• Assay A: 0.1 μM to 25 μM, 6 concentrations • Assay B: 0.00001 μM to 25 μM, 12 concentrations • Assay C: 0.026 μM to 25 μM, 6 concentrations • Assay D: Activity at single concentration of 1 μM

T1 sequence (P13569 with tags, fused parts or gaps DEL508-508): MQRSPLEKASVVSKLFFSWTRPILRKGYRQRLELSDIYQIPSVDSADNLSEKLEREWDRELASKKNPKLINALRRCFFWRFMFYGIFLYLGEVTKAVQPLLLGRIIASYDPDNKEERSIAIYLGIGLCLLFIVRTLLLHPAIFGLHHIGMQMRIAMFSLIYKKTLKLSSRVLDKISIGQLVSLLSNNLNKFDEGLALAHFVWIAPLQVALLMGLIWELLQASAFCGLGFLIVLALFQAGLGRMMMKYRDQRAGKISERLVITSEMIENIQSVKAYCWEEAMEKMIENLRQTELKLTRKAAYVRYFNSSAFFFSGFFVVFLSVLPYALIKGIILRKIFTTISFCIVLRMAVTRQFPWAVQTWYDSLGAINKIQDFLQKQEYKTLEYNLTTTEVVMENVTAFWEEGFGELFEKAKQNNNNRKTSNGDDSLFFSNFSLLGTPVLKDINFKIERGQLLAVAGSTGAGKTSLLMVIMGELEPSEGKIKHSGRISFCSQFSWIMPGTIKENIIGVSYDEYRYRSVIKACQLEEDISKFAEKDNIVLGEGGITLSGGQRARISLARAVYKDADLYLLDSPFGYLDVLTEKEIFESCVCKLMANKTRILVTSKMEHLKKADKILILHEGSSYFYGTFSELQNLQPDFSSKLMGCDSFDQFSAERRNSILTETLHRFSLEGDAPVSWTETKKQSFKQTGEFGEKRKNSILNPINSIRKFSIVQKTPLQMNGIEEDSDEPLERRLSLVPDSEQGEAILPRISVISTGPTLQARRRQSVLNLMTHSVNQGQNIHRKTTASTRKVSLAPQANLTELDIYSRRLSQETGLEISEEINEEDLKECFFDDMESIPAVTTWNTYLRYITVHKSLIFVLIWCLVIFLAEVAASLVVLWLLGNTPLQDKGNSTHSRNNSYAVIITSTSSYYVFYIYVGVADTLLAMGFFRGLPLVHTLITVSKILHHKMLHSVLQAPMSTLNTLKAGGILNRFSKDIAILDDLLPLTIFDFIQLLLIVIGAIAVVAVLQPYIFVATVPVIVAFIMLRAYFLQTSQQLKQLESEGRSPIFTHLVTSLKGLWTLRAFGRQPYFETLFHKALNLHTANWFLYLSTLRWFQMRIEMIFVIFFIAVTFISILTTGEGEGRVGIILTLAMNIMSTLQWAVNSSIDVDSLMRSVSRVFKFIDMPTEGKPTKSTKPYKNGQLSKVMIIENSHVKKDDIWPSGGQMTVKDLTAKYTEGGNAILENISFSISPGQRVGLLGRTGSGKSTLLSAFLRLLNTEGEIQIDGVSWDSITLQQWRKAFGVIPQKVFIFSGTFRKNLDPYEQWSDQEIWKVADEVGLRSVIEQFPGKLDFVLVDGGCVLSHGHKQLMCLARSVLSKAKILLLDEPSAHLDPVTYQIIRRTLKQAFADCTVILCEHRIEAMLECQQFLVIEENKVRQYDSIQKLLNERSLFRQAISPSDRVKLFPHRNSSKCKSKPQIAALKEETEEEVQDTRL

Row | D activity at 1 μM (%) | SMILES
1 | +++ (+++ is >60%) | Cc1cccc(C)c1-c1cc2nc(n1)NS(=O)(=O)c1cccc(c1)C(=O)N(Cc1cnc3oc(C(C)C)cc3n1)[C@H](COC1CC1)CO2 [Compound I-109]
2 | +++ (+++ is >60%) | Cc1cccc(C)c1-c1cc2nc(n1)NS(=O)(=O)c1cccc(c1)C(=O)N(Cc1cnc3cn(C(C)C)nc3n1)[C@H](CC(C)(C)C)CO2 [Compound I-111]
3 | +++ (+++ is >60%) | Cc1cccc(C)c1-c1cc2nc(n1)NS(=O)(=O)c1cccc(c1)C(=O)N(Cc1cnc3oc(C(C)C)c(C(F)(F)F)c3n1)[C@H](CC13CC(C1)C3)CO2 [Compound I-114]
4 | +++ (+++ is >60%) | Cc1cccc(C)c1-c1cc2nc(n1)NS(=O)(=O)c1cccc(c1)C(=O)N(Cc1cnc3oc(C4CC4)cc3n1)[C@H](COC1CC1)CO2 [Compound I-115]
5 | +++ (+++ is >60%) | Cc1cccc(C)c1-c1cc2nc(n1)NS(=O)(=O)c1cccc(c1)C(=O)N(Cc1cnc3oc(C4CC4)cc3n1)[C@H](CC1(C)CCC1)CO2 [Compound I-116]
6 | +++ (+++ is >60%) | COCCn1c(C(C)C)cc2ncc(CN3C(=O)c4cccc(c4)S(=O)(=O)Nc4nc(cc(-c5c(C)cccc5C)n4)OC[C@H]3CC(C)(C)C)nc21 [Compound I-117, (11R)-6-(2,6-dimethylphenyl)-11-(2,2-dimethylpropyl)-12-[[6-isopropyl-5-(2-methoxyethyl)pyrrolo[2,3-b]pyrazin-3-yl]methyl]-2,2-dioxo-9-oxa-2λ^6-thia-3,5,12,19-tetrazatricyclo[12.3.1.14,8]nonadeca-1(18),4(19),5,7,14,16-hexaen-13-one]
7 | +++ (+++ is >60%) | Cc1cccc(C)c1-c1cc2nc(n1)NS(=O)(=O)c1cccc(c1)C(=O)N(Cc1cnc3oc(C(C)C)c(C)c3n1)[C@H](COC1CCCC1)CO2 [Compound I-119]
8 | +++ (+++ is >60%) | Cc1cccc(C)c1-c1cc2nc(n1)NS(=O)(=O)c1cccc(c1)C(=O)N(Cc1cnc3oc(C(C)C)cc3n1)[C@H](COC1CCCC1)CO2 [Compound I-120]
9 | +++ (+++ is >60%) | Cc1cccc(C)c1-c1cc2nc(n1)NS(=O)(=O)c1cccc(c1)C(=O)N(Cc1cnc3oc(C(C)C)cc3n1)[C@H](CC1(F)CCC1)CO2 [Compound I-124]
10 | +++ (+++ is >60%) | Cc1cccc(C)c1-c1cc2nc(n1)NS(=O)(=O)c1cccc(c1)C(=O)N(Cc1cnc3cc(C(C)C)n(C)c3n1)[C@H](CC1(F)CCC1)CO2 [Compound I-125]
11 | +++ (+++ is >60%) | Cc1cccc(C)c1-c1cc2nc(n1)NS(=O)(=O)c1cccc(c1)C(=O)N(Cc1cnc3cn(C(C)C)nc3n1)[C@@H](CCC1(C)CC1)CO2 [Compound I-129]
12 | +++ (+++ is >60%) | Cc1cccc(C)c1-c1cc2nc(n1)NS(=O)(=O)c1cccc(c1)C(=O)N(Cc1cnc3cn(C(C)C)nc3n1)[C@H](COC(C)C)CO2 [Compound I-132]
13 | +++ (+++ is >60%) | Cc1cccc(C)c1-c1cc2nc(n1)NS(=O)(=O)c1cccc(c1)C(=O)N(Cc1cnc3nc(C4CC4)n(C)c3n1)[C@H](CC(C)(C)C)CO2 [Compound I-141]
14 | +++ (+++ is >60%) | Cc1cccc(C)c1-c1cc2nc(n1)NS(=O)(=O)c1cccc(c1)C(=O)N(Cc1nc3cc(C(C)C)oc3nc1C(F)(F)F)[C@H](CC1(C)CC1)CO2 [Compound I-142]
15 | +++ (+++ is >60%) | Cc1cccc(C)c1-c1cc2nc(n1)NS(=O)(=O)c1cccc(c1)C(=O)N(Cc1cnc3oc(C4(C)CCC4)cc3n1)[C@H](COC(C)C)CO2 [Compound I-144]
16 | +++ (+++ is >60%) | Cc1cccc(C)c1-c1cc2nc(n1)NS(=N)(=O)c1cccc(c1)C(=O)N(Cc1cnc3oc(C4CC4)cc3n1)[C@H](CC(C)(C)C)CO2 (stereo partly drawn) [Compound I-148, (11R)-12-[(6-cyclopropylfuro[2,3-b]pyrazin-2-yl)methyl]-6-(2,6-dimethylphenyl)-11-(2,2-dimethylpropyl)-2-imino-2-oxo-9-oxa-2λ^6-thia-3,5,12,19-tetrazatricyclo[12.3.1.14,8]nonadeca-1(18),4(19),5,7,14,16-hexaen-13-one]
17 | +++ (+++ is >60%) | Cc1cccc(C)c1-c1cc2nc(n1)NS(=O)(=O)c1cccc(c1)C(=O)N(Cc1cnc3cc(C4CC4)n(C)c3n1)[C@H](CC(C)(C)C)CO2 [Compound I-150]
18 | +++ (+++ is >60%) | Cc1cccc(C)c1-c1cc2nc(n1)NS(=O)(=O)c1cccc(c1)C(=O)N(Cc1cnc3oc(C(C)C)cc3n1)[C@H](C=C1CCC1)CO2 [Compound I-153]
19 | +++ (+++ is >60%) | Cc1cccc(C)c1-c1cc2nc(n1)NS(=O)(=O)c1cccc(c1)C(=O)N(Cc1cnc3oc(C4CC4)cc3n1)[C@H](CC(C)C)CO2 [Compound I-156]
20 | +++ (+++ is >60%) | Cc1cccc(C)c1-c1cc2nc(n1)NS(=O)(=O)c1cccc(c1)C(=O)N(Cc1cnc3cc(C(C)C)n(CCO)c3n1)[C@H](CC(C)(C)C)CO2 [Compound I-160, (11R)-6-(2,6-Dimethylphenyl)-11-(2,2-dimethylpropyl)-12-[[5-(2-hydroxyethyl)-6-isopropyl-pyrrolo[2,3-b]pyrazin-3-yl]methyl]-2,2-dioxo-9-oxa-2λ^6-thia-3,5,12,19-tetrazatricyclo[12.3.1.14,8]nonadeca-1(18),4(19),5,7,14,16-hexaen-13-one]
21 | +++ (+++ is >60%) | Cc1cccc(C)c1-c1cc2nc(n1)NS(=O)(=O)c1cccc(c1)C(=O)N(Cc1cnc3oc(C(C)C)c(Cl)c3n1)[C@H](COC(C)C)CO2 [Compound I-162]
22 | +++ (+++ is >60%) | Cc1cccc(C)c1-c1cc2nc(n1)NS(=O)(=O)c1cccc(c1)C(=O)N(Cc1cnc3oc(C4CC4)cc3n1)[C@@H](C1CC(C)(C)C1)CO2 [Compound I-163]
23 | +++ (+++ is >60%) | Cc1cccc(C)c1-c1cc2nc(n1)NS(=O)(=O)c1cccc(c1)C(=O)N(Cc1cnc3nn(C(C)C)cc3n1)[C@H](CC(C)(C)C)CO2 [Compound I-169, (11R)-6-(2,6-Dimethylphenyl)-11-(2,2-dimethylpropyl)-12-[(2-isopropylpyrazolo[3,4-b]pyrazin-5-yl)methyl]-2,2-dioxo-9-oxa-2λ^6-thia-3,5,12,19-tetrazatricyclo[12.3.1.14,8]nonadeca-1(18),4(19),5,7,14,16-hexaen-13-one]
24 | +++ (+++ is >60%) | Cc1cccc(C)c1-c1cc2nc(n1)NS(=O)(=O)c1cccc(c1)C(=O)N(Cc1cnc3oc(C(C)C)cc3n1)[C@H](CC(C)(C)C)CC2 [Compound I-173]
25 | +++ (+++ is >60%) | Cc1cccc(C)c1-c1nc2nc(c1C)OC[C@@H](COC(C)C)N(Cc1cnc3oc(C4CC4)cc3n1)C(=O)c1cccc(c1)S(=O)(=O)N2 [Compound I-181]
26 | +++ (+++ is >60%) | Cc1cccc(C)c1-c1nc2nc(c1C)OC[C@@H](CCC(C)(C)C)N(Cc1cnc3cc(C4CC4)n(C)c3n1)C(=O)c1cccc(c1)S(=O)(=O)N2 [Compound I-183]

Row | SMILES | D activity at 1 μM (%)
27 | Cc1cccc(C)c1-c1cc2nc(n1)NS(=O)(=O)c1cccc(c1)C(=O)N(Cc1cnc3cc(C(C)C)n(C)c3n1)[C@H](COC1CCCC1)CO2 [Compound I-121, (11R)-11-(Cyclopentoxymethyl)-6-(2,6-dimethylphenyl)-12-[(6-isopropyl-5-methyl-pyrrolo[2,3-b]pyrazin-3-yl)methyl]-2,2-dioxo-9-oxa-2λ^6-thia-3,5,12,19-tetrazatricyclo[12.3.1.14,8]nonadeca-1(18),4(19),5,7,14,16-hexaen-13-one] | +++ (+++ is >60%)

— patent US20250340574A1, “MODULATORS OF CYSTIC FIBROSIS TRANSMEMBRANE CONDUCTANCE REGULATOR” (Vertex Pharmaceuticals Incorporated, priority 2022, published 2025)
